Tests used:
[1] = tested on: Src; test: PDGF-induced Src activation in MEFs (Src FRET biosensor); assay type: cell-based, mouse
Source text: Unexpectedly, PDGF-induced Src activation was global without a clear spatial pattern at subcellular levels, even when MEFs were constrained on fibronectin stripes to have directional migration.

[2] = tested on: Src; test: VEGF-induced membrane Src activation in live endothelial cells (FRET); assay type: cell-based; settings: YPet-based membrane-targeted Src biosensor
Source text: Both VEGF and Src are critical for angiogenesis. […] However, VEGF-induced Src activation was difficult to detect using an ECFP/Citrine-based biosensor. […] Thus, the YPet-based Src biosensor was targeted to the plasma membrane by fusing a prenylation substrate sequence (Lys-Lys-Lys-Lys-Lys-Lys-Ser-Lys-Thr-Lys-Cys-Val-Ile-Met; SEQ ID NO:9) from KRas to visualize the VEGF-induced membrane Src activation in live endothelial cells.

[3] = tested on: Rac; test: PDGF-induced Rac activity in MEFs (Rac FRET biosensor); assay type: cell-based, mouse
Source text: The improved ECFP/YPet biosensor was further used in the analysis of molecular hierarchy in cell migration. […] However, the spatiotemporal interrelationship between Src and Rac activation has not been shown. Thus, the improved Rac biosensor was employed to visualize the spatiotemporal Rac activity during cell migration in response to platelet-derived growth factor (PDGF). The role of Src in regulating this Rac activation was also investigated. […] PDGF induced a strong Rac activation at membrane ruffles and a moderate overall activation of Rac in the whole cell. […] To further characterize the spatiotemporal Rac activity, MEF cells transfected with the Rac biosensor were seeded atop fibronectin-coated stripes (10 μm width) to constrain the cell adhesion and control the direction of cell migration. […] Again, the inhibition of Src by PP1 or Src/Yes/Fyn triple-knockout blocked the polarized Rac activity before and after PDGF stimulation.

Structure (SMILES)	PDGF-induced Src activation ([1]; MEF cells transfected with RacV12)	PDGF-induced Src activation ([1]; MEFs, disruption of actin filaments)	Effect of inhibitor on VEGF-induced FRET response [2]	Polarized Rac activity before and after PDGF stimulation ([3]; MEFs on fibronectin-coated stripes (10 μm width))	Basal and PDGF-induced Rac activity ([3]; MEFs pretreated with inhibitor, cultured on fibronectin)
C=C1[C@@H](C)[C@H]2[C@H](Cc3ccccc3)NC(=O)[C@]23[C@H](OC(C)=O)/C=C/[C@@](C)(O)C(=O)[C@@H](C)C/C=C/[C@H]3[C@@H]1O [CytoD]	inhibited	blocked	–	–	–
Cc1ccc(-c2nn(C(C)(C)C)c3ncnc(N)c23)cc1 [PP1]	–	–	abolished	blocked	significantly inhibited
CC(C)c1cc(/C=C(\C#N)C(=O)NCCCc2ccccc2)cc(C(C)C)c1O [SU1498]	–	–	abolished	–	–
